Laboratory results: patent publication US20110166428A1, “NOVEL METHOD FOR MEASURING INSULIN RESISTANCE” (UNIVERSITE JOSEPH FOURIER, priority 2008, published 2011)
Several values for one entry are separate records, joined by “and”; a condition that tells them apart may be missing. Identical values can stand only once.

Key:
[1] = test system: Zucker rats (insulin resistant); experiment: Sensitivity of the empirical index of glucose transport into the heart, Rosiglitazone vs placebo; format: in vivo, rat; details: three weeks after treatment
Text: (§1) This graph represents the mean obtained during the calculations of empirical descriptor in the heart, in the Zucker rat, with or without treatment with Rosiglitazone or with a placebo. The values of the descriptor are shown on the y-axis. The x-axis comprises 4 columns: the two on the left and the two on the right; the two on the left relate to the values observed for the rats at the start of observation before any injection, and the two on the right relate to the rats 21 days after injection. The white columns indicate rats having undergone an injection of Rosiglitazone, the black columns indicate rats having undergone an injection of a placebo.
The rat receives a first bolus of 6-DIG labelled with iodine 123 (about 250 μCi, this activity being counted in a Capintec CRC15R ionisation chamber supplied by Aries, France) in the basal condition. The activity of the 6-DIG is monitored with the gamma camera (field of view 10 cm, intrinsic resolution 1.8 mm, Biospace, France) in cardiac cells for 20 minutes. During these 20 minutes, the radioactivity is counted in “LIST” mode and analysed a posteriori.
The rat then receives an injection of insulin (2.5 IU/kg), performed 5 minutes before a second injection of the tracer (about 250 μCi). The activity of the 6-DIG is again monitored with the gamma camera in cardiac cells for 20 minutes. […]

[2] = test system: Zucker rats (insulin resistant); experiment: Sensitivity of the empirical index of glucose transport into the skeletal muscle, Rosiglitazone vs placebo; format: in vivo, rat; details: three weeks after treatment
Text: This graph represents the mean obtained during calculations of the empirical descriptor in the skeletal muscle, in the Zucker rat, with or without treatment with Rosiglitazone or with a placebo. The values of the descriptor are shown on the y-axis. The x-axis comprises 4 columns: the two on the left and the two on the right; the two on the left relate to the values observed for the rats at the start of observation before any injection, and the two on the right relate to the rats 21 days after injection. The white columns indicate rats having undergone an injection of Rosiglitazone, the black columns indicate rats having undergone an injection of a placebo.
The rat receives a first bolus of 6-DIG labelled with iodine 123 (about 250 μCi, this activity being counted in a Capintec CRC15R ionisation chamber supplied by Aries, France) in the basal condition. The activity of the 6-DIG is monitored with the gamma camera (field of view 10 cm, intrinsic resolution 1.8 mm, Biospace, France), or with the NaI probe (Scintibloc from Crismatec (Nemours, France) and ScintiSPEC, Aries) in skeletal muscle cells (quadriceps of hind paw) for 20 minutes. During these 20 minutes, the radioactivity is counted in “LIST” mode (TD. Cradduck, Computers in Nuclear Medicine, Vol. 5; No. 1, 1985, Radiographics) and analysed a posteriori […]

[3] = test system: Zucker rats (insulin resistant); experiment: Sensitivity of the theoretical index k(2,1) insulin/basal of glucose transport into the heart, Rosiglitazone vs placebo; format: in vivo, rat; details: seven days after treatment, p<0.05, FIG. 18
Text: as §1, with “during” for “during the”, “the theoretical index” for “empirical descriptor”, “index” for “descriptor”, “7” for “21”
The model utilised is a three-compartment mammillary model, derived from that used to measure the kinetic parameters of transport of 3OMG, the reference tracer for glucose transport (Cobelli, 1989; Am. J. Physiol., 257, E444-E450). It makes it possible to study the biological behaviour of the tracer after injection in the rat in vivo (Slimani L. et al., CR Biol, 2002, 325(4), 529-546). The central compartment (s1) represents the plasma. […] The radioactivity measured at the level of compartments 1 and 2 is designated respectively as q1 and q2. […]
The index characterizing the rate of glucose transport into the heart was measured twice, 7 days apart, on the same animal, treated with Rosiglitazone or a placebo. […]

[4] = Scintigraphy of 123I-6DIG in the dog: thoracic and blood activity, fasting or under GIK; format: in vivo; details: for slope of cardiac activity measured between 2 and 5 minutes: dog heart, FIG. 8
Method: This graph represents on the y-axis the variations in […], for one pixel and in the quantity (in mCi) of 6DIG injected, in relation to the x-axis which represents the data acquisition time in minutes, in the heart of a dog. The measured activity is related to the number of pixels, since when a region of interest is determined on a scintigraphy image, the number of pixels in the manually selected zone is not always the same.
Two series of data are shown; a first series of measurements indicated by linked squares represents the data recorded for a fasting animal. A second series of data, indicated by linked circles, represents the data recorded for an animal perfused with a GIK solution (Glucose/Insulin/potassium).
Animals: male beagle dogs aged about 1 year, weighing between 15 and 20 kg and fed with a standard diet Jape 21 (Ets L. Pietrement).
The dogs, premedicated with an intramuscular injection of ketamine (10 mg/kg), are anaesthetised by means of an intravenous injection of sodium thiopental (25 mg/kg). The animals are intubated and ventilated throughout the experiment and kept asleep with halothane in the ventilation circuit (oxygen-enriched air).
6DIG (20 μmol) labelled with iodine 123 (about 4 mCi) is injected intravenously. The scintigraphy images are acquired by means of a standard gamma camera equipped with a high resolution collimator and the […] is set at 160 keV with a 20% window. The variation in the thoracic radioactivity (heart, lungs and liver) with time is measured for 30 minutes post-injection, at the rate of one image per minute. The change in the blood activity is obtained by taking blood samples (1, 2, 3, 4, 5, 10. 15, 20 and 30 min p.i.) and the measurement of the radioactivity by means of a gamma counter (Packard).
Two protocols were followed, the first was implemented in fasting animals (withdrawal of food the night before the experiment, n=1) and the second was implemented in animals perfused with a GIK (Glucose/Insulin/Potassium) solution containing in particular insulin (30% glucose, 4 g/l of KCl and 80 IU/kg of insulin, n=2) and maintained throughout the experiment.

With `CN(CCOc1ccc(CC2SC(=O)NC2=O)cc1)c1ccccn1` (racemic) [Rosiglitazone, (±)-5-[[4-[2-(methyl-2-pyridinylamino)ethoxy]phenyl]methyl]-2,4-thiazolidinedione] the “empirical descriptor (empirical index of rate of glucose transport into the heart) vs rats treated with placebo” value ([1]; p=0.006, FIG. 12) was “significantly greater”, the “empirical descriptor (empirical index of rate of glucose transport into the heart) vs same rats before treatment” value ([1]; p=0.033, FIG. 12) was “significantly greater” and the “empirical descriptor (empirical index of rate of glucose transport into the skeletal muscle) vs rats treated with placebo” value ([2]; p=0.005, FIG. 16) was “significantly greater”. The “empirical descriptor (empirical index of rate of glucose transport into the skeletal muscle) vs same rats before treatment” value ([2]; p=0.021, FIG. 16) was “significantly greater” and the “index characterizing the rate of glucose transport into the heart (theoretical index) vs rats treated with placebo” value [3] was “significantly greater”.
With `O=C[C@H](O)[C@@H](O)[C@H](O)[C@H](O)CI` [6DIG, 6-Deoxy-6-Iodo-D-Glucose] the “slope of cardiac activity measured between 2 and 5 minutes” value ([4]; fasting) was 0.013, the “slope of cardiac activity measured between 2 and 5 minutes” value ([4]; under GIK perfusion) was 0.044 and 0.022 and the blood activity ([4]; dog, i.v., blood samples, gamma counter) was “decreases very rapidly”. For the same molecule, the pulmonary activity ([4]; dog, i.v., gamma camera) was “low and comparable to the background noise” and the “activity in the liver” value ([4]; dog, i.v., gamma camera, 30 minutes post-injection) was “greatest in the liver at 5 minutes but decreases rapidly”.
